Data: PubChem BioAssay (NCI)
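Following 48 hours of exposure in 96-well plates, responses at five concentrations were used to interpolate endpoints linearly. Definition used: TGI = concentration required for complete inhibition of growth.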

Columns and labels:
Experiment in all cases: NCI tumour cell line growth inhibition, 48 h
A549 NSCLC = test system: A549 NSCLC
SK-OV-3 ovarian = test system: SK-OV-3 ovarian
UO-31 renal = test system: UO-31 renal
LOX IMVI melanoma = test system: LOX IMVI melanoma
IGROV1 ovarian = test system: IGROV1 ovarian
DMS 273 small cell lung = test system: DMS 273 small cell lung
OVCAR-8 ovarian = test system: OVCAR-8 ovarian
HL-60(TB) leukemia = test system: HL-60(TB) leukemia
A498 renal = test system: A498 renal
OVCAR-4 ovarian = test system: OVCAR-4 ovarian
HCC-2998 colon = test system: HCC-2998 colon
TK-10 renal = test system: TK-10 renal
LXFL 529 NSCLC = test system: LXFL 529 NSCLC
OVCAR-5 ovarian = test system: OVCAR-5 ovarian
SF-295 CNS = test system: SF-295 CNS
UACC-62 melanoma = test system: UACC-62 melanoma
SNB-75 CNS = test system: SNB-75 CNS
M14 melanoma = test system: M14 melanoma
HCT-15 colon = test system: HCT-15 colon
SF-268 CNS = test system: SF-268 CNS
SF-539 CNS = test system: SF-539 CNS
SK-MEL-5 melanoma = test system: SK-MEL-5 melanoma
UACC-257 melanoma = test system: UACC-257 melanoma
SN12C renal = test system: SN12C renal
NCI-H460 lung = test system: NCI-H460 lung
NCI-H23 lung = test system: NCI-H23 lung
NCI-H522 lung = test system: NCI-H522 lung
ACHN renal = test system: ACHN renal
HT29 colon = test system: HT29 colon
COLO 205 colon = test system: COLO 205 colon
MOLT-4 leukemia = test system: MOLT-4 leukemia
K-562 leukemia = test system: K-562 leukemia
OVCAR-3 ovarian = test system: OVCAR-3 ovarian
SNB-19 CNS = test system: SNB-19 CNS
MALME-3M melanoma = test system: MALME-3M melanoma
EKVX NSCLC = test system: EKVX NSCLC
CAKI-1 renal = test system: CAKI-1 renal
SNB-78 CNS = test system: SNB-78 CNS
M19-MEL melanoma = test system: M19-MEL melanoma
CCRF-CEM leukemia = test system: CCRF-CEM leukemia
U251 CNS = test system: U251 CNS
RPMI-8226 leukemia = test system: RPMI-8226 leukemia
786-0 renal = test system: 786-0 renal
KM12 colon = test system: KM12 colon
DMS 114 small cell lung = test system: DMS 114 small cell lung
NCI-H226 lung = test system: NCI-H226 lung
SW-620 colon = test system: SW-620 colon
RXF 393 renal = test system: RXF 393 renal
SK-MEL-28 melanoma = test system: SK-MEL-28 melanoma
KM20L2 colon = test system: KM20L2 colon
SK-MEL-2 melanoma = test system: SK-MEL-2 melanoma
HOP-92 NSCLC = test system: HOP-92 NSCLC
HCT-116 colon = test system: HCT-116 colon
XF 498 CNS = test system: XF 498 CNS
HOP-18 NSCLC = test system: HOP-18 NSCLC
DLD-1 colon = test system: DLD-1 colon

What does the source list for `O=[N+]([O-])c1cc([N+](=O)[O-])c(/C=C/c2ccc(Cl)c(Cl)c2)cc1/C=C/c1ccc(Cl)c(Cl)c1`?
TGI (A549 NSCLC): > 100 µM; TGI (SK-OV-3 ovarian): > 100 µM; TGI (UO-31 renal): 36.1 µM; TGI (LOX IMVI melanoma): 61.6 µM; TGI (IGROV1 ovarian): 66.8 µM; TGI (DMS 273 small cell lung): 96.4 µM; TGI (OVCAR-8 ovarian): > 100 µM; TGI (HL-60(TB) leukemia): 49.2 µM; TGI (A498 renal): > 100 µM; TGI (OVCAR-4 ovarian): > 100 µM; TGI (HCC-2998 colon): > 100 µM; TGI (TK-10 renal): > 100 µM; TGI (LXFL 529 NSCLC): 56.1 µM; TGI (OVCAR-5 ovarian): > 100 µM; TGI (SF-295 CNS): 81 µM; TGI (UACC-62 melanoma): 79.6 µM; TGI (SNB-75 CNS): > 100 µM; TGI (M14 melanoma): 52 µM; TGI (HCT-15 colon): 58.9 µM; TGI (SF-268 CNS): 75.8 µM; TGI (SF-539 CNS): 51.5 µM; TGI (SK-MEL-5 melanoma): 35.7 µM; TGI (UACC-257 melanoma): 51.3 µM; TGI (SN12C renal): 43.1 µM; TGI (NCI-H460 lung): > 100 µM; TGI (NCI-H23 lung): 50.8 µM; TGI (NCI-H522 lung): 56.4 µM; TGI (ACHN renal): 81.9 µM; TGI (HT29 colon): 63.7 µM; TGI (COLO 205 colon): 38.6 µM; TGI (MOLT-4 leukemia): 62.4 µM; TGI (K-562 leukemia): 78.8 µM; TGI (OVCAR-3 ovarian): 59.8 µM; TGI (SNB-19 CNS): 66.5 µM; TGI (MALME-3M melanoma): 56.3 µM; TGI (EKVX NSCLC): > 100 µM; TGI (CAKI-1 renal): > 100 µM; TGI (SNB-78 CNS): > 100 µM; TGI (M19-MEL melanoma): 46.1 µM; TGI (CCRF-CEM leukemia): 53.4 µM; TGI (U251 CNS): > 100 µM; TGI (RPMI-8226 leukemia): 50.3 µM; TGI (786-0 renal): 60.3 µM; TGI (KM12 colon): 51.1 µM; TGI (DMS 114 small cell lung): 68.1 µM; TGI (NCI-H226 lung): 66.3 µM; TGI (SW-620 colon): 88.6 µM; TGI (RXF 393 renal): 37 µM; TGI (SK-MEL-28 melanoma): 59.2 µM; TGI (KM20L2 colon): 81 µM; TGI (SK-MEL-2 melanoma): 56.4 µM

With `Nc1nc(N)c(-c2ccccc2)c(C(=O)Nc2ccccc2)n1` as the compound, how does the TGI (A549 NSCLC) read?
Its TGI is greater than 100 µM.

And the TGI (SK-OV-3 ovarian)?
The TGI was greater than 100 µM.

What about the TGI (UO-31 renal) of the same compound?
Its TGI is greater than 100 µM.

And the TGI (LOX IMVI melanoma)?
The TGI was greater than 100 µM.

What about the TGI (IGROV1 ovarian) of the same compound?
The TGI was greater than 100 µM.

What about the TGI (HOP-92 NSCLC) of the same compound?
The TGI was greater than 100 µM.

What about the TGI (OVCAR-8 ovarian) of the same compound?
The TGI was greater than 100 µM.

And the TGI (A498 renal)?
Its TGI is greater than 100 µM.

And the TGI (HCT-116 colon)?
The TGI was greater than 100 µM.

And the TGI (OVCAR-4 ovarian)?
Its TGI is greater than 100 µM.

What about the TGI (TK-10 renal) of the same compound?
The TGI was greater than 100 µM.

And the TGI (OVCAR-5 ovarian)?
Its TGI is greater than 100 µM.

And the TGI (XF 498 CNS)?
The TGI was greater than 100 µM.

And the TGI (UACC-62 melanoma)?
The TGI was greater than 100 µM.

What about the TGI (SNB-75 CNS) of the same compound?
The TGI was greater than 100 µM.

And the TGI (M14 melanoma)?
The TGI was greater than 100 µM.

And the TGI (HCT-15 colon)?
The TGI was greater than 100 µM.

What about the TGI (SF-268 CNS) of the same compound?
Its TGI is greater than 100 µM.

And the TGI (SF-539 CNS)?
The TGI was greater than 100 µM.

What about the TGI (SK-MEL-5 melanoma) of the same compound?
Its TGI is greater than 100 µM.

What about the TGI (UACC-257 melanoma) of the same compound?
The TGI was greater than 100 µM.

What about the TGI (SN12C renal) of the same compound?
The TGI was greater than 100 µM.

What about the TGI (NCI-H460 lung) of the same compound?
The TGI was greater than 100 µM.

And the TGI (NCI-H23 lung)?
Its TGI is greater than 100 µM.

What about the TGI (NCI-H522 lung) of the same compound?
Its TGI is greater than 100 µM.

What about the TGI (ACHN renal) of the same compound?
The TGI was greater than 100 µM.

And the TGI (HT29 colon)?
Its TGI is greater than 100 µM.

What about the TGI (COLO 205 colon) of the same compound?
Its TGI is greater than 100 µM.

What about the TGI (MOLT-4 leukemia) of the same compound?
Its TGI is greater than 100 µM.

And the TGI (K-562 leukemia)?
The TGI was greater than 100 µM.

And the TGI (OVCAR-3 ovarian)?
Its TGI is greater than 100 µM.

And the TGI (SNB-19 CNS)?
Its TGI is greater than 100 µM.

And the TGI (MALME-3M melanoma)?
Its TGI is greater than 100 µM.

And the TGI (EKVX NSCLC)?
Its TGI is greater than 100 µM.

And the TGI (CAKI-1 renal)?
Its TGI is greater than 100 µM.

And the TGI (SNB-78 CNS)?
Its TGI is greater than 100 µM.

And the TGI (M19-MEL melanoma)?
The TGI was greater than 100 µM.

And the TGI (HOP-18 NSCLC)?
The TGI was greater than 100 µM.

And the TGI (CCRF-CEM leukemia)?
Its TGI is greater than 100 µM.

What about the TGI (U251 CNS) of the same compound?
Its TGI is greater than 100 µM.

What about the TGI (RPMI-8226 leukemia) of the same compound?
The TGI was greater than 100 µM.

What about the TGI (786-0 renal) of the same compound?
The TGI was greater than 100 µM.

And the TGI (KM12 colon)?
Its TGI is greater than 100 µM.

What about the TGI (DLD-1 colon) of the same compound?
Its TGI is greater than 100 µM.

And the TGI (NCI-H226 lung)?
The TGI was greater than 100 µM.

And the TGI (SW-620 colon)?
The TGI was greater than 100 µM.

What about the TGI (RXF 393 renal) of the same compound?
Its TGI is greater than 100 µM.

What about the TGI (SK-MEL-28 melanoma) of the same compound?
Its TGI is greater than 100 µM.

What about the TGI (KM20L2 colon) of the same compound?
Its TGI is greater than 100 µM.

What about the TGI (SK-MEL-2 melanoma) of the same compound?
Its TGI is greater than 100 µM.
